How the values were obtained:
Type in all cases: functional
[1] = target: T1, Cdk-related protein kinase 6 (Plasmodium falciparum, UniProt O77239); assay: Final concentrations were 1.5 uM ATP, 5 mM MnCl2, and 15 ug/ml PK6 in a buffer of 100 mM Tris-HCl (pH 7.5). 50 ug/mL MBP was provided as the substrate; 10 uM staurosporine was used as a control inhibitor. Incubation time was 3 hours and 40 minutes.The catalytic activity of each kinase was considered proportional to ATP consumed, as determined from measurements of residual [ATP] with the luciferase-based reagent Kinase-Glo (Promega) following incubation. Luminescence (proportional to residual [ATP]) was measured on the plate readers FLx800 (BioTek Instruments, Winooski, VT, USA) and MicroBeta2.
T1 sequence (O77239 whole entry): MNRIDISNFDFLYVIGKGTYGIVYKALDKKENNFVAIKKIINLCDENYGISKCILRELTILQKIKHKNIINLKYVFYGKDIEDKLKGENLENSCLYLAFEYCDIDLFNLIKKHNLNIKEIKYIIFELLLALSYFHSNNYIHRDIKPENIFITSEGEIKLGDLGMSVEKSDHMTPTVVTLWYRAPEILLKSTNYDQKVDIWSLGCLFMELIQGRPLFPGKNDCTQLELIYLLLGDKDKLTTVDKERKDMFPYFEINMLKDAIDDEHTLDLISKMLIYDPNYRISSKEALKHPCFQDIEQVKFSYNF

[2] = target: T2, Putative uncharacterized protein pk7 (Plasmodium falciparum, UniProt O96214); assay: Final concentrations were 1 uM ATP, 2 mM DTT, 20 mM MgCl2, 2 mM MnCl2, 0.01% BSA, and 6 ug/ml PK7, in a buffer of 20 mM Tris-HCl (pH 7.5). The enzyme itself was the only substrate present (since autophosphorylation occurs); 100 uM 1NA-PP1 was used as a control inhibitor. Incubation time was 3 hours.
T2 sequence (O96214 whole entry): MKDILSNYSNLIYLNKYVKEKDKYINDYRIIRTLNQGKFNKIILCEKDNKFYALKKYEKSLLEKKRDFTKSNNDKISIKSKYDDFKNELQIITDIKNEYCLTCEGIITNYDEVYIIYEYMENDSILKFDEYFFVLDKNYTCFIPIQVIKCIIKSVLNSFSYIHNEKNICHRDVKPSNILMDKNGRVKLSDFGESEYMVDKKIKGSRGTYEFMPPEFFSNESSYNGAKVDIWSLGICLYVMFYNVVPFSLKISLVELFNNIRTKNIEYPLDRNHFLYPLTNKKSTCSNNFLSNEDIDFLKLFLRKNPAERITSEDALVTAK

[3] = target: T3, Mitogen-activated protein kinase (Plasmodium falciparum, UniProt Q25917); assay: Final concentrations were 1 uM ATP, 0.5 mM DTT, 1 mM MgCl2, 0.5 mg/mL BSA, and 10 ug/ml MAP2 in a buffer of 50 mM HEPES (pH 7.0). 0.5 mg/mL histone III-S served as the substrate (13); 100 uM AMP-PNP, an ATP analog, was used as a control inhibitor. Incubation time was 4 hours.
T3 sequence (Q25917 whole entry): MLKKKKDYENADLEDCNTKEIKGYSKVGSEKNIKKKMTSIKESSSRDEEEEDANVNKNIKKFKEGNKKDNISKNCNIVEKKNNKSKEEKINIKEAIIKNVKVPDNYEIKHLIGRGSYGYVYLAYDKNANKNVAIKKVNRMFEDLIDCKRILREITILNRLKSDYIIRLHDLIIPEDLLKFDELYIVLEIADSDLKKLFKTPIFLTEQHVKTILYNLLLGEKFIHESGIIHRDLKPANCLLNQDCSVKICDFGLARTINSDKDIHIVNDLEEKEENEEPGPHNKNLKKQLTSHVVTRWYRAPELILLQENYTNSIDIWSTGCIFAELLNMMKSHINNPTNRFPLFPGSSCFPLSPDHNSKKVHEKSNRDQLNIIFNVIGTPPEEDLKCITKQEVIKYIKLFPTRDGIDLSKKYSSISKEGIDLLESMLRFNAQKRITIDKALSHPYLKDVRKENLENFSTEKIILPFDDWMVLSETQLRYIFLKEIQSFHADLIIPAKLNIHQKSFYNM

[4] = target: Calcium-dependent protein kinase 1 (Plasmodium falciparum, UniProt P62344); assay: MMV: CDPK1 Protein kinase inhibition assay using recombinant PfCDPK1, syntide 2 peptide substrate, ATP and KinaseGlo to measure % inhibition at 1 uM MMV box compound.
Sequence of Calcium-dependent protein kinase 1 (P62344 whole entry): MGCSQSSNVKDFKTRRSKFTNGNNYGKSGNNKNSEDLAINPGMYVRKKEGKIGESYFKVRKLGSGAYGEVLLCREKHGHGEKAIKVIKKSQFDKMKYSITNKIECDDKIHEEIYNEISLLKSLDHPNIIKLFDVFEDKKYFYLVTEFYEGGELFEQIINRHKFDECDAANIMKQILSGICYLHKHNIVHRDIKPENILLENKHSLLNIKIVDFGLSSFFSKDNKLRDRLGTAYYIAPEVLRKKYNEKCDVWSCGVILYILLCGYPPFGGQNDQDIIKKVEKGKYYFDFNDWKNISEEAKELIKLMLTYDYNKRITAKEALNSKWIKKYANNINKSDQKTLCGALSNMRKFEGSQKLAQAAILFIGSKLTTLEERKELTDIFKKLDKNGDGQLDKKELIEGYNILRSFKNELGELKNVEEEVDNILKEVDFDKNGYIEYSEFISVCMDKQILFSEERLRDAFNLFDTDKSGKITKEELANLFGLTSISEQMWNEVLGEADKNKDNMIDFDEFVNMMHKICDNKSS

[5] = target: T4, Calcium-dependent protein kinase 4 (Plasmodium falciparum (isolate 3D7), UniProt Q8IBS5); assay: MMV: CDPK4 Protein kinase inhibition assay using recombinant PfCDPK4, syntide2 peptide substrate, ATP and KinaseGlo to measure % inhibition at 1 uM MMV box compound.
T4 sequence (Q8IBS5 whole entry): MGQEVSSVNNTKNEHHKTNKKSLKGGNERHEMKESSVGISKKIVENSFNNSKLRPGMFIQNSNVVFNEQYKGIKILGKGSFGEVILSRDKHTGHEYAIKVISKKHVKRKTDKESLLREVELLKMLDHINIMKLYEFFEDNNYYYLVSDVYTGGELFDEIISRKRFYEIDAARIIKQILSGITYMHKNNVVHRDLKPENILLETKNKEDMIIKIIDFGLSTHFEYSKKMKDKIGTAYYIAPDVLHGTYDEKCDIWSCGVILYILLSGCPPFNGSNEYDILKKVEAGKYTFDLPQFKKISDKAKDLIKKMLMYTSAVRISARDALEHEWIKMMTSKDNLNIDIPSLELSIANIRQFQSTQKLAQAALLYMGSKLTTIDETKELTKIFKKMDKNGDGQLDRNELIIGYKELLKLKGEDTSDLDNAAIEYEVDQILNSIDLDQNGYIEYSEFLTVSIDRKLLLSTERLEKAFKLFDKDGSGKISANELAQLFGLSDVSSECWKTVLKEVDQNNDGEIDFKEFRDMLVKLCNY

[6] = target: T5, Proline--tRNA ligase (Plasmodium falciparum (isolate 3D7), UniProt Q8I5R7); assay: MMV: ProRS recombinant Plasmodium falciparum Prolyl-tRNA-synthetase, assay with yeast tRNA, ATP, and proline and 3 uM MMV malaria box compound, assay read out with kinase glo as % inhibition.
T5 sequence (Q8I5R7 whole entry): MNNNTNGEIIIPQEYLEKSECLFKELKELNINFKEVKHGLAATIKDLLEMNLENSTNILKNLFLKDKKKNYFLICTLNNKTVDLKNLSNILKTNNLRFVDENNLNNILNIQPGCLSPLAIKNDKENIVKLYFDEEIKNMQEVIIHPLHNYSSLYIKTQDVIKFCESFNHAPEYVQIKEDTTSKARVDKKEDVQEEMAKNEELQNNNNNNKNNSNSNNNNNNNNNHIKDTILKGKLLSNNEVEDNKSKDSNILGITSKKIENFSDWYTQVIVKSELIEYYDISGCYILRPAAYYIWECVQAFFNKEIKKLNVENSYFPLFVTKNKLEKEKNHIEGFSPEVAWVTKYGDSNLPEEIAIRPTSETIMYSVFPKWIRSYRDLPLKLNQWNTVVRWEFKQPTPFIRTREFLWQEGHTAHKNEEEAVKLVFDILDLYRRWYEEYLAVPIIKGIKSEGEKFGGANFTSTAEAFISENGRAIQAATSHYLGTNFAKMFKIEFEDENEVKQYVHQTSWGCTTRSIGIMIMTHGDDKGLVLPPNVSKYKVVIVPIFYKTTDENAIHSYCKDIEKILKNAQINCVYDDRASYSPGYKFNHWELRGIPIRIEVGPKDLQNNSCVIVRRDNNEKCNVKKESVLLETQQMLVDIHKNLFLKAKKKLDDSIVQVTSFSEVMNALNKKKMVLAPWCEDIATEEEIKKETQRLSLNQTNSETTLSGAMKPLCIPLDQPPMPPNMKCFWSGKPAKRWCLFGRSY

[7] = target: Lysine--tRNA ligase (Plasmodium falciparum (isolate 3D7), UniProt Q8IDJ8); assay: MMV: KRS recombinant Plasmodium falciparum Lysyl-tRNA-synthetase, assay with yeast tRNA, ATP, and lysine and 3 uM MMV malaria box compound, assay read out with kinase glo as % inhibition.
Sequence of Lysine--tRNA ligase (Q8IDJ8 whole entry): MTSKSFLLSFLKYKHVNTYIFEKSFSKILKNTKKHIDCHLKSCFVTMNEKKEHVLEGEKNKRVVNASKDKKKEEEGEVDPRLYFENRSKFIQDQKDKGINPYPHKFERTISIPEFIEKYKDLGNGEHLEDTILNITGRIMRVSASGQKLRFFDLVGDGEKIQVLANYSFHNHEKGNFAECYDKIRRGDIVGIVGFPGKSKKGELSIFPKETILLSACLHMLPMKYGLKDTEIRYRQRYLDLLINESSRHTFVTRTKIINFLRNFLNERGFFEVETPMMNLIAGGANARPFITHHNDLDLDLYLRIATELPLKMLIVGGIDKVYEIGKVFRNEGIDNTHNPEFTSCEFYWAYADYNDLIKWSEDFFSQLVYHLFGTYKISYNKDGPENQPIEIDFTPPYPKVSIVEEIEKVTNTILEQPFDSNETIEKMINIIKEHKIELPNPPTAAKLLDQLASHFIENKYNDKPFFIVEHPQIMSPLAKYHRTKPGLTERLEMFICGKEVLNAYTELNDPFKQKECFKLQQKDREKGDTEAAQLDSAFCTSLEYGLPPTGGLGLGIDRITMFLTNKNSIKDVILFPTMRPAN

Compound | IC50 [1] [nM] | IC50 [2] [nM] | IC50 [3] [nM] | IC50 [4] [nM] | IC50 [5] [nM] | IC50 [6] [nM] | IC50 [7] [nM]
c1ccc(-c2ccc(-c3nc4ccccc4[nH]3)cc2)cc1 | > 1000 | > 1000 | > 1000 | > 1000 | > 1000 | > 2500 | > 2500
CCC(C)NCC(O)(c1ccc(Cl)cc1)c1ccc(Cl)cc1 (configuration not stated) | > 1000 | > 1000 | > 1000 | > 1000 | > 1000 | > 2500 | > 2500
COCCNC(=O)c1ccc(OC2CCN(Cc3ccc(F)c(F)c3)CC2)c(Cl)c1 | > 1000 | > 1000 | > 1000 | > 1000 | > 1000 | > 2500 | > 2500
O=C(CCc1ccco1)NC1CCN(CC2(c3ccc(Cl)cc3)CCC2)CC1 | > 1000 | > 1000 | > 1000 | > 1000 | > 1000 | > 2500 | > 2500
COCCN(C(=O)Cc1cccs1)C(C(=O)NCc1ccc(OC)cc1)c1ccc(C(C)C)cc1 (configuration not stated) | > 1000 | > 1000 | > 1000 | > 1000 | > 1000 | > 2500 | > 2500
FC(F)(F)c1cccc(CNC2CCN(CCc3ccccc3)CC2)c1 | > 1000 | > 1000 | > 1000 | > 1000 | > 1000 | > 2500 | > 2500
Oc1ccc(Cl)cc1CNc1nc2ccccc2[nH]1 | > 1000 | > 1000 | > 1000 | > 1000 | > 1000 | > 2500 | > 2500
O=C(c1ccccc1F)N(Cc1ccc(Cl)cc1)c1ccccn1 | > 1000 | > 1000 | > 1000 | > 1000 | > 1000 | > 2500 | > 2500
O=C(Nc1ccc(Cl)cc1)N1CCN(c2ccc3nncn3n2)CC1 | > 1000 | > 1000 | > 1000 | > 1000 | > 1000 | > 2500 | > 2500
CCCCNCC(O)(c1ccc(Cl)cc1)c1ccc(Cl)cc1 | > 1000 | > 1000 | > 1000 | > 1000 | > 1000 | > 2500 | > 2500
CCn1c(SCC(=O)Nc2cc(C(F)(F)F)ccc2Cl)nc2ccccc2c1=O | > 1000 | > 1000 | > 1000 | > 1000 | > 1000 | > 2500 | > 2500
Cc1ccc(Cn2c(N3CCC(C(=O)NCc4cccs4)CC3)nc3ccccc32)cc1 | > 1000 | > 1000 | > 1000 | > 1000 | > 1000 | > 2500 | > 2500
O=C(Nc1ccc(Cl)cc1C(=O)Nc1ccncc1)c1ccc(Cl)cc1Cl | > 1000 | > 1000 | > 1000 | > 1000 | > 1000 | > 2500 | > 2500
CC(C)(C)CC(C)(C)NCC(O)COc1ccc2c(c1)CCC2 (configuration not stated) | > 1000 | > 1000 | > 1000 | > 1000 | > 1000 | > 2500 | > 2500
CCOc1ccc(/C=C/c2nc(=O)c3ccccc3o2)cc1 | > 1000 | > 1000 | > 1000 | > 1000 | > 1000 | > 2500 | > 2500
CC(O)(c1ccc(Cl)cc1)C(CN1CCCCC1)c1ccccc1 (configuration not stated) | > 1000 | > 1000 | > 1000 | > 1000 | > 1000 | > 2500 | > 2500
CCCCc1ccc(NS(=O)(=O)c2cc3c4c(c2)CCN4C(=O)CC3)cc1 | > 1000 | > 1000 | > 1000 | > 1000 | > 1000 | > 2500 | > 2500
CCOc1ccccc1CNC(=O)C1c2ccccc2C(=O)N(CC(C)C)C1c1cccs1 (configuration not stated) | > 1000 | > 1000 | > 1000 | > 1000 | > 1000 | > 2500 | > 2500
COc1ccc(C2Sc3ccccc3N=C3C2=C(O)c2ccccc23)cc1 (configuration not stated) | > 1000 | > 1000 | > 1000 | > 1000 | > 1000 | > 2500 | > 2500
CCN(CC)CCCNc1nc(-c2ccc(Cl)cc2)nc2ccccc12 | > 1000 | > 1000 | > 1000 | > 1000 | > 1000 | > 2500 | > 2500
CC1CCCCN1CCCNC(=O)c1ccc2c(c1)sc1nc(-c3ccc(F)cc3)cn12 (configuration not stated) | > 1000 | > 1000 | > 1000 | > 1000 | > 1000 | > 2500 | > 2500
